In ChEMBL document CHEMBL2202982, “Synthesis and SAR development of novel mGluR1 antagonists for the treatment of chronic pain” (Bioorg Med Chem Lett, 2012):

Assay: in vivo
Conditions: rat, po

Row | Structure (SMILES) | AUC(0-t) at 6 h
1 | COc1ccc(-n2cnc3c(sc4ncnc(NC5CC5)c43)c2=O)cc1F | 8.6 µM·h
2 | Cc1ccc(-n2cnc3c(sc4ncnc(NC5CC5)c43)c2=O)cc1 | 0.89 µM·h
